The results in this text go back to patent US9724331B2, “Use of maleimide derivatives for preventing and treating leukemia” (CENTOGENE AG, priority 2012, dated 2017).

The subject of experiment [1] is Jurkat cells. The experiment is described as follows: Apoptosis and necrosis, Annexin V FITC / PI flow cytometry. The class given is cell-based, human. The method, then: (§1) Apoptosis and necrosis were analyzed by staining the cells with Annexin V FITC (BD Biosciences, Heidelberg, Germany) and propidium iodide (PI) (Sigma Aldrich, St. Louis, USA). Results were assessed by flow cytometry.
(§2) (A) Cells were treated with PDA-66 for up to 72 h and stained with Annexin V FITC and Propidium iodide (PI). Rates of early apoptotic (FITC^+, PI^−) and late apoptotic and necrotic (FITC^+, PI^+) cells were measured by flow cytometry. Significant induction of apoptosis could be observed in all cell lines after 48 h of incubation as well as tendential induction of necrosis at both points of time. […] (B) Induction of apoptosis was confirmed by Western blot. Cells were treated with different concentrations of PDA-66 and total cell lysates (25 μg) were analyzed by Western blot to detect cleavage of Caspase 3, 7 and PARP. GAPDH was used as loading control.
(§3) More specifically, 5×10^5 cells were harvested and washed twice (180 g, 10 min, 4° C.) with PBS. After resuspending the cells in 100 μl of binding buffer (1×) 4 μl of Annexin V FITC were added and incubated for 15 min at room temperature. Following addition of 400 μl binding buffer for a final volume of 500 μl the cells were stained with PI (0.6 μg/ml) immediately before measurement. As controls unstained and single stained cells were included in each experiment. Measurements were performed using FACSCalibur (Becton and Dickinson, Heidelberg, Germany) and data analyses were carried out with CellQuest software (Becton and Dickinson, Heidelberg, Germany).
(In general: In flow cytometry, cells or beads pass a laser one at a time.)

Another experiment has as its system Molt-4 cells. The description is as above. The class given is cell-based, human. The method, then:
as §1, §2, §3

For the next experiment, the system named is RS4;11 cells. The description is as above. The class given is cell-based, human. The method, then:
as §1, §2, §3

The subject of experiment [2] is SEM cells. Described as above. The class given is cell-based, human. The procedure: as §1, §2, §3
The test system of experiment [3] is Jurkat cells. The experiment is described as follows: May Grunwald-Giemsa staining, morphology by light microscopy. Format: cell-based, human. As to conditions: 1 μM PDA-66, 48 h, vs. DMSO treated control cells. The procedure: (§4) Cytospins of SEM and Jurkat cells were stained with May Grunwald-Giemsa Staining after 48 h of incubation with 1 μM PDA-66 and DMSO, respectively
(§5) After treatment with 1 μM PDA-66 3×10^4 cells were brought onto object slides with Cytospin 3 centrifuge (Shandon, Frankfurt/Main, Germany). Subsequently cells were stained using May-Grunwald-Giemsa staining. Briefly, slides were incubated in May-Grunwald solution (Merck, Darmstadt, Germany) for 6 min, then washed with tap water, incubated in Giemsa solution (Merck, Darmstadt, Germany) for 20 min and washed in tap water again. After letting the slides dry the cells were analyzed by Nikon Eclipse E 600 light microscope and pictures were taken with NIS Elements software (Nikon, Düsseldorf, Germany).

Experiment [4] has as its system SEM cells. The description is as above. Format: cell-based, human. The note with it: 1 μM PDA-66, 48 h, vs. DMSO treated control cells. The method, then: as §4, §5
Experiment [5] has as its system cleavage of Caspase 3, 7 and PARP. The experiment is described as follows: Western blot, induction of apoptosis. Format: cell-based, human. The note with it: all cell lines (SEM shown exemplarily); 48 h after addition. The method, then:
as §2
Additionally, the effect of PDA-66 on apoptosis was determined by and western blot. For protein extraction cells were washed twice in PBS and lysed with RIPA buffer (50 mM Tris HCl pH 7.4; 150 mM NaCl; 0.1% SDS and 1% NP40) including protease and phosphatase inhibitors (Roche Applied Science, Mannheim, Germany). Samples were incubated for 20 min at 4° C. and frozen at −20° C. Cell extracts were thawed and centrifuged at 12000 g for 10 min at 4° C. Total protein concentration of supernatants was determined using Bio-Rad Protein Assay (Bio-Rad, München, Germany).
Equal amounts of protein samples were separated by SDS-polyacrylamid gel (8% or 15%) electrophoresis and transferred onto a PVDF membrane (Amersham Biosciences, Buckinghamshire, UK). […]

The next experiment deals with T1, recombinant human GSK3β (Homo sapiens, UniProt P49841).
T1 construct: purchased Biomol, Hamburg, Germany
T1 sequence (P49841 whole entry): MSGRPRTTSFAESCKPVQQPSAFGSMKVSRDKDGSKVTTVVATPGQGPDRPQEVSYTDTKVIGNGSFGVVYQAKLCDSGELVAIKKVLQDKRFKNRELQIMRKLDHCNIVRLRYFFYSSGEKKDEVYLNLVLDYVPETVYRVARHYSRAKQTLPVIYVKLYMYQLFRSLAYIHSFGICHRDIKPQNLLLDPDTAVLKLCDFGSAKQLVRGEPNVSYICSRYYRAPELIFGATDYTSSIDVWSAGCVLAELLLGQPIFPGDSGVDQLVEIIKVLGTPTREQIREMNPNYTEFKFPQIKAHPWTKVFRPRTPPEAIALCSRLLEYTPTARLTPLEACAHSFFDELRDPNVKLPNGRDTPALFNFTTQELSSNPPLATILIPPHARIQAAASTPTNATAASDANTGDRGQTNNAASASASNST
The experiment is described as follows: GSK3β kinase activity assay (Kinase-Glo luminescence). Format: biochemical. The procedure:
The kinase activity assay was performed as previously described by Schmole et. al., 2010 (Schmole et al., 2010, Novel indolylmaleimide acts as GSK-3beta inhibitor in human neural progenitor cells. Bioorganic medicinal chemistry, 18, 6785-95). Briefly, recombinant human GSK3β (Biomol, Hamburg, Germany) was incubated with its substrate phospho glycogen synthase peptide 2 (pGS2) (Millipore, Billerica, USA), ATP (Cell Signaling, Frankfurt am Main, Germany) and different concentrations of PDA-66 for 30 min at 30° C. After addition of Kinase-Glo (Promega, Mannheim, Germany) and 10 min of incubation at room temperature the luminescence signal was measured with a Glomax 96 microplate reader (Promega). More specifically, recombinant human GSK3β was incubated with pGS2, ATP and different concentrations of PDA-66. […] In each experiment the concentrations of PDA-66 and the control were tested with 8 replicates. * Significant treatment effect vs. DMSO control, α=0.05.
The effect of PDA-66 on the enzyme activity of GSK3β was determined by incubation of the enzyme with a specific substrate, PDA-66 and ATP. With growing inhibitory effect there is more ATP present after the incubation. In a second step remaining ATP is converted to a luminescence signal, which is inversely proportional to the enzyme activity.

Entries after “also recorded” stand apart in the source; their conditions may differ.

For the molecule `CC(=O)c1ccc(C2=C(c3c(C)[nH]c4ccccc34)C(=O)N(C)C2=O)cc1` [PDA-66, 3-(4-Acetylphenyl)-1-methyl-4-(2-methyl-1H-indol-3-yl)-1H-pyrrole-2,5-dione], the necrosis result is “tendential increase” in the experiment with Jurkat cells [1] (1 μM PDA-66, 48 h); “tendential increase” in the experiment with Molt-4 cells (1 μM PDA-66, 48 h); “tendential increase” in the experiment on RS4;11 cells (1 μM PDA-66, 48 h); “tendential increase” with SEM cells [2] (1 μM PDA-66, 48 h). Also, the “apoptosis (early apoptotic cells, FITC+, PI−)” value was 8.3±1.9% in the experiment on Jurkat cells [1] (1 μM PDA-66, 48 h, mean±SD); 6.1±0.7% in the experiment on Jurkat cells [1] (1 μM PDA-66, 72 h, mean±SD); 16.3±5.1% in the experiment with Molt-4 cells (1 μM PDA-66, 48 h, mean±SD); 20.1±6.6% with Molt-4 cells (1 μM PDA-66, 72 h, mean±SD); 7.4±1.1% in the experiment with RS4;11 cells (1 μM PDA-66, 48 h, mean±SD); 6.4±3.6% in the experiment on RS4;11 cells (1 μM PDA-66, 72 h, mean±SD). Moreover, the “apoptosis (early apoptotic cells, FITC+, PI−)” value is given as 10.5±1.3% in the experiment on SEM cells [2] (1 μM PDA-66, 48 h, mean±SD) and 5.6±1.6% in the experiment on SEM cells [2] (1 μM PDA-66, 72 h, mean±SD). Moreover, the “necrosis rate (late apoptotic and necrotic cells, FITC+, PI+)” value in the experiment on Jurkat cells [1] (1 μM PDA-66, 72 h, mean±SD) worked out at 28.0±13.4%; in the experiment on Molt-4 cells (1 μM PDA-66, 72 h, mean±SD) it was 46.7±15.6%; in the experiment with RS4;11 cells (1 μM PDA-66, 72 h, mean±SD) it was 26.5±10.2%; with SEM cells [2] (1 μM PDA-66, 72 h, mean±SD), 27.8±5.81%. In addition, the morphology entry with Jurkat cells [3] is “condensation of chromatin in the nucleus, karyorrhexis and an increasing amount of vacuoles and cell debris”; in the experiment with SEM cells [4], “condensation of chromatin in the nucleus, karyorrhexis and an increasing amount of vacuoles and cell debris”. In experiment [5], the “cleavage of caspases 3 and 7 and PARP” value is reported as “induced cleavage”. Also, the GSK3β enzyme activity entry on recombinant human GSK3β (10 μM PDA-66) is recorded as “seems to enhance enzyme activity”. Moreover, on recombinant human GSK3β (0.25-1 μM PDA-66, 30 min at 30° C., vs. DMSO control), the GSK3β kinase activity result is reported as “significantly inhibited; also recorded: inhibition of the enzyme”. Moreover, at recombinant human GSK3β (FIG. 1), the “dose response relationship of GSK3β kinase activity” value was “bell shaped dose response relationship”.
